Results as given in paper PMC11883425, “The synthesis and investigation of novel 3-benzoylbenzofurans and pyrazole derivatives for anti-HIV activity” (RSC Medicinal Chemistry, 2025).
Read-outs that look alike come from different tables or passages of the source.

Columns and labels:
various HIV-1 subtypes = conditions: literature reports; read-out: IC50 against various HIV-1 subtypes; cited from earlier work
HIV-1 Q23 pseudovirus = experiment: HIV-1 whole virus inhibition assay, Q23 pseudovirus (luciferase, TZM-bl cells); type: cell-based
Experimental: (§1) The HIV pseudoviruses were produced from the plasmids that were kindly donated by Dr Mthunzi-Kufa (CSIR, South Africa). Competent DH5α cells and STBL2 cells were transformed with envelope (CAP210.2.00.E8 and Q23.17) and backbone plasmid (HIV-1 SG3 ΔEnv) through heat-shock at 42 °C for 90 seconds and cooled in ice for 5 minutes. The transformed cells were grown in Luria Bertani medium containing 100 μg mL^−1 ampicillin and glycerol stocks were prepared. The transformed cells were grown at 37 °C in a 200 rpm shaking incubator overnight and the plasmids were isolated from the cells using a GeneJET plasmid Miniprep Kit (ThermoFisher Scientific Inc). The purity of the isolated plasmids was assessed for purity using Nanodrop. The HEK 293T cells were co-transfected with the backbone (10 μg) and envelope plasmids (5 μg) using the PolyFect Transfection Reagent (QIAGEN N.V) for 8–12 hours and the transfected cells were grown for 48 hours producing pseudoviruses which were collected, and stocks stored at −80 °C.
(§2) The compounds were serial diluted from 100 to1.56 μM in 96 well plates (Separation Scientific SA (Pty) Ltd) and incubated with either CAP210 or Q23 pseudoviruses (200 TCID50) and incubated for 1 hour. The TZM-bl cells (1 × 10^5 cells per mL containing 7.5 μg mL^−1 DEAE-dextran) were added and incubated for 48 hours. The 96 well plates were centrifuged, and the supernatant was removed leaving only 50 μL in each well. The Bright-Glo™ Luciferase substrate (Anatech Instruments (Pty) Ltd) (50 μL) was added to each well and incubated for 2 minutes in the dark and chemiluminescence readings were taken in a Corning® 96-well white polystyrene plate using a SpectraMax® Paradigm® Multi-Mode Microplate Reader.

[1] = test system: HIV-1 subtype C pseudoviruses; conditions: cited from earlier work
CAP210 pseudovirus = experiment: Time of drug addition assay, CAP210 pseudovirus in TZM-bl cells; type: cell-based, HIV-1; conditions: 3 μM, added 0, 2, 4, 6, 8 hours post-infection
Experimental: Fig. 5 Time of addition assay of CAP210 HIV infection treated with active compounds. TZM-bl cells were infected with CAP210 pseudoviruses and treated with compounds at various hours post-infection. NVP, 3g, and 4b were used at 3 μM, while 5f and 5h were used at 25 μM. The bars represent the mean ± SEM obtained from three independent experiments.
TZM-bl cells (1 × 10^5 cells per mL containing 7.5 μg mL^−1 DEAE-dextran) were infected with CAP210 pseudovirus at 400 TCID50 and incubated at 37 °C for 48 hours. The compounds were added to the wells at various time points (0, 2, 4, 6, and 8 hours) post-infection. […] After 48 hours, the cells were centrifuged at 1200 × g for 5 minutes, culture media was removed, leaving 50 μL, and Bright-Glo substrate (50 μL) was added to detect luciferase activity for 2 minutes at 37 °C. Inhibition of HIV pseudoviruses by active compounds was detected by reading for chemiluminescence using a Corning® 96-well white polystyrene using the SpectraMax® Paradigm® Multi-Mode Microplate Reader.

HIV-1 CAP210 pseudovirus = experiment: HIV-1 whole virus inhibition assay, CAP210 pseudovirus (luciferase, TZM-bl cells); type: cell-based
Experimental: as §1, §2

Cc1ccnc2c1NC(=O)c1cccnc1N2C1CC1 [NVP, nevirapine, reference compound]
IC50 (various HIV-1 subtypes): ~30 nM | IC50 (HIV-1 Q23 pseudovirus; TZM-bl, 48 h, read-out: IC50 (μM) Q23, Q23 pseudovirus, TZM-bl cells, 48 hours): < 0.11 µM | inhibition of Q23 infection (HIV-1 Q23 pseudovirus; all tested concentrations): 99% | IC50 (HIV-1 Q23 pseudovirus; read-out: IC50 (μM) Q23, Q23 pseudovirus, TZM-bl cells, 48 hours): 0.11 ± 0.004 µM | IC50 [1]: 30 nM | inhibition of HIV infection by time of addition (CAP210 pseudovirus): inhibit HIV infections for up to 8 hours | IC50 (HIV-1 CAP210 pseudovirus; TZM-bl, 48 h, read-out: IC50 (μM) CAP210, CAP210 pseudovirus, TZM-bl cells, 48 hours): 0.1 ± 0.002 µM | inhibition of CAP210 infection (HIV-1 CAP210 pseudovirus; all tested concentrations): 99%
